These results are taken from US20220323356A1, “METAL (HYDR)OXIDE COMPOSITE COMPRISING POORLY SOLUBLE DRUG, METHOD FOR PREPARING SAME, AND PHARMACEUTICAL COMPOSITION COMPRISING SAME” (priority 2020, published 2022).

Counter-ions that a name gives are not always drawn.

In general, AUC(0-t) refers to the area under the concentration-time curve up to a stated or last time point. For orientation: Tmax means the time from dosing to the highest level. By half-life is commonly meant the time needed for the level to fall by half in the phase considered. As a reminder, the Cmax is the highest concentration seen after dosing.

Assay in one data set: not given
The note with it: in vivo; cited from earlier work.
In the case of `CC(=O)O[C@@]12CO[C@@H]1C[C@H](O)[C@@]1(C)C(=O)[C@H](O)C3=C(C)[C@@H](OC(=O)[C@H](O)[C@@H](NC(=O)OC(C)(C)C)c4ccccc4)C[C@@](O)([C@@H](OC(=O)c4ccccc4)[C@H]21)C3(C)C` [Docetaxel], the “bioavailability (%)” value is 8%.

On to `CS(=O)(=O)CCNCc1ccc(-c2ccc3ncnc(Nc4ccc(OCc5cccc(F)c5)c(Cl)c4)c3c2)o1` [lapatinib], for which the “bioavailability (%)” value is 60%.

Regarding `N#Cc1cc(NC(=O)C(=O)O)c(Cl)c(NC(=O)C(=O)O)c1` [lodoxamide], the “bioavailability (%)” value is 71%.

On to `CN(C)C(=O)C(CCN1CCC(O)(c2ccc(Cl)cc2)CC1)(c1ccccc1)c1ccccc1` [loperamide], for which the “bioavailability (%)” value is recorded as 0.3%.

Consider `Cc1cccc(C)c1OCC(=O)N[C@@H](Cc1ccccc1)[C@@H](O)C[C@H](Cc1ccccc1)NC(=O)[C@H](C(C)C)N1CCCNC1=O` [lopinavir], for which the “bioavailability (%)” value is recorded as 25%.

On to `OC(c1cc(C(F)(F)F)nc2c(C(F)(F)F)cccc12)C1CCCCN1` (stereo not drawn) [mefloquine], for which the “bioavailability (%)” value is 85%.

As for `COc1ccc2[nH]cc(CCNC(C)=O)c2c1` [melatonin], the “bioavailability (%)” value was 15%.

With `O=C(Nc1ccc([N+](=O)[O-])cc1Cl)c1cc(Cl)ccc1O` [niclosamide], the “bioavailability (%)” value is on record as 10%.

For `Cc1cn(-c2cc(NC(=O)c3ccc(C)c(Nc4nccc(-c5cccnc5)n4)c3)cc(C(F)(F)F)c2)cn1` [nilotinib], the “bioavailability (%)” value is 30%.

On to `C=CC(=O)Nc1cc(Nc2nccc(-c3cn(C)c4ccccc34)n2)c(OC)cc1N(C)CCN(C)C` [osimertinib(AZD-9291), osimertinib], for which the “bioavailability (%)” value is given as 70%.

With `Cc1ccc(Nc2nccc(N(C)c3ccc4c(C)n(C)nc4c3)n2)cc1S(N)(=O)=O` [pazopanib], the “bioavailability (%)” value is reported as 14-39%.

`CC(=O)CCCCn1c(=O)c2c(ncn2C)n(C)c1=O` [pentoxifylline]: the “bioavailability (%)” value is 20%.

`C1CCC(C(CC2CCCCN2)C2CCCCC2)CC1` (stereo not drawn) [perhexiline maleate]: the “bioavailability (%)” value is reported as 80%.

As to `CCCN[C@H]1CCc2nc(N)sc2C1` [pramipexole], the “bioavailability (%)” value is 90%.

For `CC(C)(Sc1cc(C(C)(C)C)c(O)c(C(C)(C)C)c1)Sc1cc(C(C)(C)C)c(O)c(C(C)(C)C)c1` [probucol], the “bioavailability (%)” value is on record as 6%.

Take `C[C@@H]1O[C@@H](O[C@@H]2C=C3CC[C@@H]4[C@H](CC[C@]5(C)[C@@H](c6ccc(=O)oc6)CC[C@]45O)[C@@]3(C)CC2)[C@H](O)[C@H](O)[C@H]1O` [proscillaridin]: the “bioavailability (%)” value is reported as 25%.

As for `O=c1c(O)c(-c2ccc(O)c(O)c2)oc2cc(O)cc(O)c12` [quercetin], the “bioavailability (%)” value is recorded as 20%.

For `CC[C@@H](C(=O)[C@@H](C)[C@@H](O)[C@H](C)[C@@H]1O[C@@H]([C@@H](CC)C(=O)O)CC[C@@H]1C)[C@H]1O[C@]2(C=C[C@@H](O)[C@]3(CC[C@@](C)([C@H]4CC[C@](O)(CC)[C@H](C)O4)O3)O2)[C@H](C)C[C@@H]1C` [salinomycin], the “bioavailability (%)” value is listed as 73%.

As for `Cc1c(C(=O)Nc2ccc(N3C[C@@H](C)O[C@@H](C)C3)nc2)cccc1-c1ccc(OC(F)(F)F)cc1` [sonidegib], the “bioavailability (%)” value is 69%.

With `Cn1nnc2c(C(N)=O)ncn2c1=O` [temozolomide], the “bioavailability (%)” value is 100%.

As to `CSc1ccc2c(c1)N(CCC1CCCCN1C)c1ccccc1S2` (stereo not drawn) [thioridazine], the “bioavailability (%)” value is recorded as 28%.

In the case of `CN(C)CCOc1ccc(/C(=C(/CCCl)c2ccccc2)c2ccccc2)cc1` [toremifene], the “bioavailability (%)” value is 100%.

For `CC(=O)Nc1cccc(-n2c(=O)n(C3CC3)c(=O)c3c(Nc4ccc(I)cc4F)n(C)c(=O)c(C)c32)c1` [trametinib], the “bioavailability (%)” value is given as 72%.

Another data set can be described thus: In-vivo pharmacokinetic analysis of calcined metal (hydr)oxide-docetaxel compositions, single oral administration. The note with it: rat, 40 mg/kg.
As to `CC(=O)O[C@@]12CO[C@@H]1C[C@H](O)[C@@]1(C)C(=O)[C@H](O)C3=C(C)[C@@H](OC(=O)[C@H](O)[C@@H](NC(=O)OC(C)(C)C)c4ccccc4)C[C@@](O)([C@@H](OC(=O)c4ccccc4)[C@H]21)C3(C)C` [Docetaxel], the exposure AUC(0-t) worked out at 47.5 ng·h/mL, the Tmax turned out to be 0.5 h and the half-life was 9.41 h.

The data set is the same for the next values; noted with them: rat, 40 mg/kg, Cmax, Docetaxel PO 40 mg/kg, rats.
Regarding `CC(=O)O[C@@]12CO[C@@H]1C[C@H](O)[C@@]1(C)C(=O)[C@H](O)C3=C(C)[C@@H](OC(=O)[C@H](O)[C@@H](NC(=O)OC(C)(C)C)c4ccccc4)C[C@@](O)([C@@H](OC(=O)c4ccccc4)[C@H]21)C3(C)C` [Docetaxel], the Cmax is 5.25 ng/mL.
